This is an account of results in patent US8492384B2 (Korea Institute of Science and Technology, priority 2008, dated 2013).

Type in all cases: cell-based
Experiment [1] addresses T1, α1G T-type calcium channels (Homo sapiens, UniProt O43497).
T1 construct: host or cells: HEK293
Description: T-type calcium channel activity using the FDSS6000 (HTS, Fluo-3/AM, KCl-induced intracellular calcium change). The following applies: percent inhibition at 10 μM, HEK293 cells stably expressing α1G T-type calcium channels and Kir2.1, KCl 75 mM activation; for inhibition at 10 µM: read-out: FDSS (%, 10 μM). The procedure:
(§1) The novel compounds of the present invention presented as the formula 1 were tested for their antagonistic activities against T-type calcium channels using the methods described below. More specifically, the synthesized compounds were screened as follows: First, as a primary screening, the compounds having 40% or higher of antagonistic activities against T-type calcium channels were selected using the FDSS6000, a high throughput screening (HTS) device. Then, as a secondary screening, the IC50 (effective inhibitory concentration) values were obtained using the electrophysiological methods.
1) Methods for the Measurements of T-Type Calcium Channel Activity Using the FDSS6000
12 to 24 hours prior to the FDSS-based HTS assay, HEK293 cells stably expressing both α1G T-type calcium channels and Kir2.1 channels (α1G cell line: KCTC 10519BP, KRIBB (Korea Research Institute of Bioscience and Biotechnology) (GENE BANK) were seeded onto the 96-well plate coated with poly-L-lysine (0.05 mg/mL) at a density of 4×10^4 cells/well using a cell distributor (Titertek, USA). On the following day, the cells attached onto the 96-well plate were washed three times with a HEPES-buffered solution (150 mM NaCl, 5 mM KCl, 1 mM MgCl2, 2 mM CaCl2, 10 mM HEPES, 10 mM glucose, and pH 7.4) using an automatic 96-well plate washer (BioTek, USA), and then labeled with a fluorescent calcium indicator dye, Fluo-3/AM (5 μM) and 0.001% Pluronic F-127 in a HEPES-buffered solution at room temperature for 1 hour and then washed again with a HEPES-buffered solution twice. 10 minutes prior to the FDSS6000 measurements, the cells was washed with a HEPES-buffered solution containing 10 mM CaCl2 once and the final volume was adjusted.
In addition to the 96-well plates with cells, the two drug plates were prepared: one containing KCl (final concentration of 75 mM) for the activation of T-type calcium channels, and the other containing testing compounds (blocking agents of T-type calcium channels). Since most cell-based HTS devices are provided with a liquid application system for drug injection but not with a liquid absorption system, the KCl solution and the blocking agents for screening were prepared at concentrations five times higher than the final concentrations in the 10 mM CaCl2 HEPES-buffered solution, and then diluted in the cell plate, and the activities were measured. The specific method of the FDSS6000 measurements is as follows: For the FDSS6000 measurements, after the 20-sec baseline recordings, cells were preincubated with drugs for 75 seconds and the change in intracellular calcium concentration induced by KCl was measured. The percent inhibition by a test compound was calculated as integrated values of 340/380 fluorescent ratio of untreated and drug-treated cells. The control drug was 10 μM of Mibefradil®.
In details, cells were selectively exposed to 340 nm and 380 nm light excited by 4 xenon lamps installed in FDSS6000 using a computer-controlled filter wheel. The emitter fluorescence light through a 515 nm long-pass filter was passed by a freezing digital CCD camera mounted on the device. Data were collected every 1.23 seconds, and an average value of 340/380 fluorescent ratio for each well was obtained using a digital fluorescent analyzer. Data acquisition and analysis were performed using a program provided by Hamamatsu Photonics.

Experiment [2] deals with T1, α1G T-type calcium channels. Description: T-type calcium channel activity using electrophysiological whole-cell patch-clamp technique. The note with it: percent inhibition of inward peak currents, HEK293 cells expressing α1G, head prints 100 μM.
Experiment [3] has the same target. The description is as above. The following applies: HEK293 cells expressing α1G T-type calcium channels. How it is done: as §1
2) Methods for the Measurements of T-Type Calcium Channel Activity Using an Electrophysiological Whole-Cell Patch-Clamp Technique
HEK293 cells stably expressing T-type calcium channels were cultured in DMEM (Dulbecco's modified Eagle's medium) containing 10% (v/v) fetal bovine serum and 1% penicillin/streptomycin (v/v) in humidified 5% CO2 at 36.5° C. Cells expressing α1GT-type calcium channels were selected using G-418 (0.5 mg/mL) in the culture medium. The culture medium was replaced with a fresh one every 3-4 days, and cells were subcultured every week.
Cells were seeded onto the coverglass coated with poly-L-lysine (0.5 mg/mL) for the measurements of T-type calcium channel activity 2-7 days prior to the recordings. Whole-cell recordings of T-type calcium channel currents were performed using an EPC-9 patch clamp amplifier (HEKA, Germany). Whole-cell currents were recorded using micropipettes with resistance of 3-4 MΩ with the pipette (intracellular) solution containing (in mM): 130 KCl, 11 EGTA, 5 Mg-ATP, and 10 HEPES, pH to 7.4 and with the bath (extracellular) solution containing (in mM): 140 NaCl, 2 CaCl2, and 10 HEPES, pH to 7.4. The inward currents of T-type calcium channels were evoked by the test pulses of −30 mV for 50 ms at a holding potential of −100 mV every 10 seconds.
Each compound was dissolved in dimethylsulfoxide (DMSO) as 10 mM stock solutions and diluted in the bath solution to 10 μM (containing 0.1% DMSO). […] More specifically, each compound was perfused to the bath for about 30-60 seconds, and the inhibition of the inward peak currents by a test compound was calculated as a percent inhibition from which the IC50 values were determined.

T1 sequence (O43497 whole entry): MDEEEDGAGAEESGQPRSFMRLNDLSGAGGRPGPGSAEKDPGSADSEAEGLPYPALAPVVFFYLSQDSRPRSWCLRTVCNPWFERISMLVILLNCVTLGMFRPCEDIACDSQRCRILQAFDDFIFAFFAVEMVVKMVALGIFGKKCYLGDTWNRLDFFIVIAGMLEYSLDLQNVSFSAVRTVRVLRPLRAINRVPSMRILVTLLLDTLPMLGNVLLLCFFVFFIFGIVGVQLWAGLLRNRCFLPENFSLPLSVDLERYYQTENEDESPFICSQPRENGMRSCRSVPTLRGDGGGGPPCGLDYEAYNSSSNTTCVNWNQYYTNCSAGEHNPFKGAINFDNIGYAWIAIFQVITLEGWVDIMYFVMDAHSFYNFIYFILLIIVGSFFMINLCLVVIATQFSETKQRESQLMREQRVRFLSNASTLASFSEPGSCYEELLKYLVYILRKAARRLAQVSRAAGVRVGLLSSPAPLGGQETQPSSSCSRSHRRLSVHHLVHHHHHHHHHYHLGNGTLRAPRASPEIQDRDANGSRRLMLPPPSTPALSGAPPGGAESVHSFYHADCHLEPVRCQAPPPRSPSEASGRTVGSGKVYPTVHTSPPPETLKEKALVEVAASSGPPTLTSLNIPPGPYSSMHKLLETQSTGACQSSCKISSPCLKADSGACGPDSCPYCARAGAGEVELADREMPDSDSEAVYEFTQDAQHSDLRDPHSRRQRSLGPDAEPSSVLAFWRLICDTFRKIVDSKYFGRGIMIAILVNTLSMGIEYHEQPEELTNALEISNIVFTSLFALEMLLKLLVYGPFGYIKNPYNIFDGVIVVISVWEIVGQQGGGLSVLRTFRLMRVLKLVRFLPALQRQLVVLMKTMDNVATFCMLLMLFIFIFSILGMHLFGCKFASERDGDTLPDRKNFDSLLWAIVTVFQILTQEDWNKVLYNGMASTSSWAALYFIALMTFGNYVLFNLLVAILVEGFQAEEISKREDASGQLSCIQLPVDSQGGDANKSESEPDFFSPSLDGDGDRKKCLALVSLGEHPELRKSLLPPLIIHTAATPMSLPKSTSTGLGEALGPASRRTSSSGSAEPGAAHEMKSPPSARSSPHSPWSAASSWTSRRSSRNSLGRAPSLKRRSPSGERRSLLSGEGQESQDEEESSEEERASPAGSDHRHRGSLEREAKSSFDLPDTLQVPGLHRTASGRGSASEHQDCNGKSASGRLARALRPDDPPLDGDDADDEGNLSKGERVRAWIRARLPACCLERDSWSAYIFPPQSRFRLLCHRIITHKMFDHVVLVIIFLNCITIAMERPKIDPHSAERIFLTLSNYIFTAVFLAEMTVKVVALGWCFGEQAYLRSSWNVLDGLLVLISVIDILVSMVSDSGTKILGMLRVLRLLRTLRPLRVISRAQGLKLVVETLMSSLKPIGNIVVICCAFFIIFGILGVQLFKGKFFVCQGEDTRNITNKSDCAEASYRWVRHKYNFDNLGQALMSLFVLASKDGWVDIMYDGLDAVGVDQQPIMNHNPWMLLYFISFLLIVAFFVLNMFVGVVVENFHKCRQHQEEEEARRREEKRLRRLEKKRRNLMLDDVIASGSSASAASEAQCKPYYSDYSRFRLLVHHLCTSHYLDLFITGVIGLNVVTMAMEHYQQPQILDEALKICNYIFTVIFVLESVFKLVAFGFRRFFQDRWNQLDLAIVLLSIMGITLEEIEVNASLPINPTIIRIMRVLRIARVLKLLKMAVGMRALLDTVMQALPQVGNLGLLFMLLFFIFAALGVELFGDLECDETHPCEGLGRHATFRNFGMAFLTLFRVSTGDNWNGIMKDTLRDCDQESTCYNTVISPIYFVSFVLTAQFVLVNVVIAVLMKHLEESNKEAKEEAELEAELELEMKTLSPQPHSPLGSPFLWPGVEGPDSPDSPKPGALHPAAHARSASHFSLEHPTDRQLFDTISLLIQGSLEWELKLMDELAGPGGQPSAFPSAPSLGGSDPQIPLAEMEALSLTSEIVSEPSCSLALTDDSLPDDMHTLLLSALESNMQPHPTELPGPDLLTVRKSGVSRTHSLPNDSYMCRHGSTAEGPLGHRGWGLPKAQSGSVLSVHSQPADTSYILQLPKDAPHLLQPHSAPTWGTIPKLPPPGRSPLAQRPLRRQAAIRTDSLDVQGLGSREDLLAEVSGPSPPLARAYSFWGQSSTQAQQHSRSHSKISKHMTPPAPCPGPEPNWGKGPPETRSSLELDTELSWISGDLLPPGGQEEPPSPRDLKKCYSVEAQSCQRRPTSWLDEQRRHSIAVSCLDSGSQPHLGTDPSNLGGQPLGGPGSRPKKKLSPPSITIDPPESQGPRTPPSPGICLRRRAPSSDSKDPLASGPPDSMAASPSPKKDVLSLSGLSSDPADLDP

For `O=C(CCn1cnc(-c2ccccc2)c1)NCCN1CCN(C(c2ccccc2)c2ccccc2)CC1` [Compound No. 55, 1-N-[2-(4-diphenylmethylpiperazin-1-yl)ethyl]carbamoylethyl-4-phenylimidazole], the inhibition at 10 µM in experiment [1] was 49.6%. Besides, the inhibition at 100 µM in experiment [2] amounted to 51.9 ± 0.1%. In experiment [3], the IC50 came to 8.66 ± 0.12 µM.

Regarding “1-N-{2-[4-(4-chlorophenyl) (phenyl)methylpiperazin-1-yl]ethyl}carbamoylethyl-2-phenylimidazole [Compound No. 63]”, the “FDSS (%, 10 μM)” value in experiment [1] is 58.64%. In addition, in experiment [2], the “HEK293 (%, 100 μM)” value came to 89.1 ± 1.3%. Also, in experiment [3], the IC50 came to 2.11 ± 0.11 µM.

In the case of `O=C(CCn1ccnc1-c1ccccc1)N1CCN(Cc2ccc(Cl)c(Cl)c2)CC1` [Compound No. 18, 1-N-[4-(3,4-dichlorobenzyl)piperazin-1-yl]carbonylethyl-2-phenylimidazole], the inhibition at 10 µM in experiment [1] is 39.3%. Besides, the inhibition at 100 µM in experiment [2] was 50 ± 0.6%. For the same molecule, the concentration for half-maximal inhibition (IC50) in experiment [3] came out at 9.36 ± 0.65 µM.

Consider `O=C(CCn1cnc(-c2ccccc2)c1)N1CCN(c2cccc(Cl)c2)CC1` [Compound No. 25, 1-N-[4-(3-chlorophenyl)piperazin-1-yl]carbonylethyl-4-phenylimidazole], for which the inhibition at 10 µM in experiment [1] was determined as 63.7%. The inhibition at 100 µM in experiment [2] came to 74.3 ± 1.3%. In addition, the IC50 in experiment [3] came out at 4.35 ± 0.14 µM.

On to `O=C(CCn1cnc(-c2ccccc2)c1)N1CCN(c2ccccc2F)CC1` [Compound No. 20, 1-N-[4-(2-fluorophenyl)piperazin-1-yl]carbonylethyl-4-phenylimidazole], for which, in experiment [1], the inhibition at 10 µM was 45.2%. In addition, the inhibition at 100 µM in experiment [2] was determined as 22.9 ± 1.4%. For the same molecule, the IC50 in experiment [3] came to 22.3 ± 1.46 µM.

As for `O=C(CCn1cnc(-c2ccccc2)c1)N1CCN(Cc2ccc(Cl)cc2)CC1` [Compound No. 5, 1-N-[4-(4-chlorobenzyl)piperazin-1-yl]carbonylethyl-4-phenylimidazole], the inhibition at 10 µM in experiment [1] was determined as 64.7%. For the same molecule, the inhibition at 100 µM in experiment [2] was 86.5 ± 1.8%. In addition, in experiment [3], the IC50 is 3 ± 0.26 µM.

As for `O=C(CCn1ccnc1-c1ccccc1)NCCN1CCN(c2ccc(F)cc2)CC1` [Compound No. 74, 1-N-{2-[4-(4-fluorophenyl)piperazin-1-yl]ethyl}carbamoylethyl-2-phenylimidazole], the inhibition at 10 µM in experiment [1] amounted to 49.8%. In addition, in experiment [2], the inhibition at 100 µM came to 37.6 ± 0.5%. In experiment [3], the IC50 came to 14.5 ± 0.68 µM.

As to `O=C(CCn1ccnc1-c1ccccc1)N1CCN(C(c2ccccc2)c2ccccc2)CC1` [Compound No. 13, 1-N-(4-diphenylmethylpiperazin-1-yl)carbonylethyl-2-phenylimidazole], the inhibition at 10 µM in experiment [1] was 54.7%. In addition, in experiment [2], the inhibition at 100 µM turned out to be 71.1 ± 3.3%. For the same molecule, the IC50 in experiment [3] was determined as 3.67 ± 0.23 µM.

As for “1-N-{2-[4-(4-chlorophenyl) (phenyl)methylpiperazin-1-yl]ethyl}carbamoylethyl-4-phenylimidazole [Compound No. 64]”, in experiment [1], the “FDSS (%, 10 μM)” value came to 60.48%. For the same molecule, in experiment [2], the “HEK293 (%, 100 μM)” value was determined as 95.8 ± 0.7%. The IC50 in experiment [3] came to 1.39 ± 0.07 µM.

Regarding `O=C(CCn1ccnc1-c1ccccc1)NCCN1CCN(C(c2ccccc2)c2ccccc2)CC1`, the inhibition at 10 µM in experiment [1] is 60.8%. In addition, the inhibition at 100 µM in experiment [2] was 29.1 ± 1.7%. Besides, the IC50 in experiment [3] was 18 ± 0.92 µM.

In the case of “1-N-[4-(4-chlorophenyl)(phenyl)methylpiperazin-1-yl]carbonylethyl-4-methylimidazole [Compound No. 45]”, the “FDSS (%, 10 μM)” value in experiment [1] stood at 47.90%. For the same molecule, the “HEK293 (%, 100 μM)” value in experiment [2] is on record as 64.7 ± 2.2%. Further, in experiment [3], the concentration for half-maximal inhibition (IC50) worked out at 5.46 ± 0.57 µM.

Regarding `Cc1cccc(N2CCN(C(=O)CCn3cnc(-c4ccccc4)c3)CC2)c1C` [Compound No. 3, 1-N-[4-(2,3-dimethylphenyl)piperazin-1-yl]carbonylethyl-4-phenylimidazole], the inhibition at 10 µM in experiment [1] was determined as 55.5%. In experiment [2], the inhibition at 100 µM came out at 64.7 ± 2.2%. Besides, the IC50 in experiment [3] is 4.89 ± 0.44 µM.

On to “1-N-[4-(4-chlorophenyl)(phenyl)methylpiperazin-1-yl]carbonylethyl-2-methylimidazole [Compound No. 46]”, for which the “FDSS (%, 10 μM)” value in experiment [1] is 51.94%. Further, the “HEK293 (%, 100 μM)” value in experiment [2] came out at 67.6 ± 1.3%. The IC50 in experiment [3] is 4.97 ± 0.18 µM.
